Test results: patent US4598089A, “Leucine derivatives” (Hoffmann-La Roche Inc., priority 1983, dated 1986)

Columns and labels:
resorption of fats = assay: inhibition of the resorption of fats, double-labelling experiment on mice (3H-triolein and 14C-oleic acid excreted with the feces); format: in vivo; conditions: 40 mg/kg lipstatin, given as preparation containing about 10% lipstatin, test meal
Procedure: For this purpose, there is administered to the test animals a test meal, which contains ^3 H-triolein and ^14 C-oleic acid, and a compound of formula I. By measuring the radioactivity there is then determined the amount of ^3 H-triolein and ^14 C-oleic acid (in % of the amount administered) excreted with the feces.
*The experiments were carried out with a preparation which contained abou
10% lipstatin. The dosage specified is the amount of lipstatin

pig pancreas lipase = target: T1, pig pancreas lipase (Sus scrofa, UniProt P00591); assay: inhibition of pancreas lipase (titrimetric, oleic acid liberated from triolein); format: biochemical
T1 sequence (P00591 1-450): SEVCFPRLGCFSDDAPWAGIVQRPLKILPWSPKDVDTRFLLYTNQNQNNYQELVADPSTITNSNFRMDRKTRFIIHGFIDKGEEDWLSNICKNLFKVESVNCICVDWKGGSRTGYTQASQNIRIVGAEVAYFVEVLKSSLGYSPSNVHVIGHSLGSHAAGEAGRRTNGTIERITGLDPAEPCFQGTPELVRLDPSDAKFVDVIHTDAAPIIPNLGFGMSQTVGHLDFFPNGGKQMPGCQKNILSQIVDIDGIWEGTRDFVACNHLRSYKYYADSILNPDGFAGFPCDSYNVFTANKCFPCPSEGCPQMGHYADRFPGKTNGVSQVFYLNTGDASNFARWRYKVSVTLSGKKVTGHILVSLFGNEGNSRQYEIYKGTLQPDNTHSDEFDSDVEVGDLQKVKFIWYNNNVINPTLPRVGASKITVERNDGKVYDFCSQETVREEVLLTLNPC
Description: The IC50 is that concentration at which the lipase reactivity is inhibited to half of the maximum.

[1] = acute toxicity, single oral administration to mice; conditions: mouse, in vivo
Procedure: An emulsion which contains 1 mM taurodeoxycholate, 9 mM taurodeoleate, 0.1 mM cholesterol, 1 mM egg lecithin, 15 mg/ml BSA (i.e., bovine serum albumine), 2 mM Tris-HCl, 100 mM sodium chloride, 1 mM calcium chloride and the substrate triolein is treated with the compound of formula I dissolved in ethanol or dimethyl sulphoxide (10% of the emulsion volume) and the reaction is started by the addition of 100 μl (175 U) of pig pancreas lipase. the pH is held at 8 during the reaction by the addition of sodium hydroxide. The IC50 is calculated from the consumption of sodium hydroxide determined during 10 minutes. The IC50 is that concentration at which the lipase reactivity is inhibited to half of the maximum. Table I hereinafter contains IC50 values determined for the compounds of formula I and data concerning the acute toxicity (LD50 after single oral administration to mice).

CCCCC/C=C\C/C=C\C[C@@H](C[C@@H]1OC(=O)[C@H]1CCCCCC)OC(=O)[C@H](CC(C)C)NC=O [Lipstatin, (2S,3S,5S,7Z,10Z)-5-[(S)-2-formamido-4-methyl-valeryloxy]-2-hexyl-3-hydroxy-7,10-hexadecadienoic acid lactone]
Excretion of Triolein in % of the amount administered (resorption of fats; controls 3.5 ± 0.3): 56.8 ± 13 % of the amount administered | Excretion of Oleic acid in % of the amount administered (resorption of fats; controls 10.1 ± 0.6): 13.8 ± 5.6 % of the amount administered | IC50 (pig pancreas lipase): 142 nM | LD50 [1]: > 4000 mg/kg
